Assay results published in patent US7524869B2, “Taxanes having a C10 ester substituent” (Florida State University Research Foundation, Inc., priority 2000, dated 2009).
pIC50: −log10 of the molar value.

Test system: HCT116
Experiment: In vitro cytotoxicity measured by the cell colony formation assay
Type: cell-based
Conditions: HCT116 cells, 72 h drug incubation, colonies counted after 7 days; ID50 = drug concentration producing 50% inhibition of colony formation; read-out: IN VITRO ID 50 (nm) HCT116

Compound | pIC50
CCCC(=O)O[C@H]1C(=O)[C@@]2(C)C([C@H](OC(=O)c3ccccc3)[C@]3(O)C[C@H](OC(=O)[C@H](O)[C@@H](NC(=O)OCC(C)C)c4ccsc4)C(C)=C1C3(C)C)[C@]1(OC(C)=O)CO[C@@H]1C[C@@H]2O (stereo partly drawn) [Compound 4834] | > 8.00
C/C=C/C(=O)N[C@@H](c1cccs1)[C@@H](O)C(=O)O[C@H]1C[C@@]2(O)[C@@H](OC(=O)c3ccccc3)C3[C@](C)(C(=O)[C@H](OC(=O)CC)C(=C1C)C2(C)C)[C@@H](O)C[C@H]1OC[C@@]31OC(C)=O (stereo partly drawn) [Compound 3494] | > 9.00
CC(=O)OC12COC1CC(O)C1(C)C(=O)C(OC(=O)c3cccs3)C3=C(C)C(OC(=O)C(O)C(NC(=O)OC(C)(C)C)c4ccco4)CC(O)(C(OC(=O)c4ccccc4)C21)C3(C)C (stereo not drawn) [Compound 1892] | > 9.00
C/C=C/C(=O)O[C@H]1C(=O)[C@@]2(C)C([C@H](OC(=O)c3ccccc3)[C@]3(O)C[C@H](OC(=O)[C@H](O)[C@@H](NC(=O)OC(C)(C)C)c4ccc([N+](=O)[O-])cc4)C(C)=C1C3(C)C)[C@]1(OC(C)=O)CO[C@@H]1C[C@@H]2O (stereo partly drawn) [Compound 2439] | > 8.00
CC(=O)O[C@@]12CO[C@@H]1C[C@H](O)[C@@]1(C)C(=O)[C@H](OC(=O)C3CC3)C3=C(C)[C@@H](OC(=O)[C@H](O)[C@@H](NC(=O)OC(C)(C)C)c4ccccc4)C[C@@](O)([C@@H](OC(=O)c4ccccc4)C12)C3(C)C (stereo partly drawn) [Compound 0882] | > 9.00
CC(=O)O[C@@]12CO[C@@H]1C[C@H](O)[C@@]1(C)C(=O)[C@H](OC(=O)C=C(C)C)C3=C(C)[C@@H](OC(=O)[C@H](O)[C@@H](NC(=O)OC(C)(C)C)c4ccncc4)C[C@@](O)([C@@H](OC(=O)c4ccccc4)C12)C3(C)C (stereo partly drawn) [Compound 2472] | > 9.00
CC(=O)O[C@@]12CO[C@@H]1C[C@H](O)[C@@]1(C)C(=O)[C@H](OC(=O)C3CC3)C3=C(C)[C@@H](OC(=O)[C@H](O)[C@@H](NC(=O)c4ccccc4)c4ccc([N+](=O)[O-])cc4)C[C@@](O)([C@@H](OC(=O)c4ccccc4)C12)C3(C)C (stereo partly drawn) [Compound 2869] | > 8.00
CCCC(=O)O[C@H]1C(=O)[C@@]2(C)C([C@H](OC(=O)c3ccccc3)[C@]3(O)C[C@H](OC(=O)[C@H](O)[C@@H](NC(=O)OCC(C)C)C4CC4)C(C)=C1C3(C)C)[C@]1(OC(C)=O)CO[C@@H]1C[C@@H]2O (stereo partly drawn) [Compound 4808] | > 8.00
CCOC(=O)N[C@@H](c1cccs1)[C@@H](O)C(=O)O[C@H]1C[C@@]2(O)[C@@H](OC(=O)c3ccccc3)C3[C@](C)(C(=O)[C@H](OC(=O)C4CC4)C(=C1C)C2(C)C)[C@@H](O)C[C@H]1OC[C@@]31OC(C)=O (stereo partly drawn) [Compound 4051] | > 9.00
CC(=O)O[C@@]12CO[C@@H]1C[C@H](O)[C@@]1(C)C(=O)[C@H](OC(=O)C=C(C)C)C3=C(C)[C@@H](OC(=O)[C@H](O)[C@@H](NC(=O)OC(C)(C)C)c4ccco4)C[C@@](O)([C@@H](OC(=O)c4ccccc4)C12)C3(C)C (stereo partly drawn) [Compound 2488] | > 9.00
CCCC(=O)O[C@H]1C(=O)[C@@]2(C)C([C@H](OC(=O)c3ccccc3)[C@]3(O)C[C@H](OC(=O)[C@H](O)[C@@H](NC(=O)OCC(C)C)c4ccco4)C(C)=C1C3(C)C)[C@]1(OC(C)=O)CO[C@@H]1C[C@@H]2O (stereo partly drawn) [Compound 3957] | > 8.00
CCC(=O)O[C@H]1C(=O)[C@@]2(C)C([C@H](OC(=O)c3ccccc3)[C@]3(O)C[C@H](OC(=O)[C@H](O)[C@@H](NC(=O)c4ccncc4)c4cccs4)C(C)=C1C3(C)C)[C@]1(OC(C)=O)CO[C@@H]1C[C@@H]2O (stereo partly drawn) [Compound 4207] | > 8.00
C/C=C/C(=O)O[C@H]1C(=O)[C@@]2(C)C([C@H](OC(=O)c3ccccc3)[C@]3(O)C[C@H](OC(=O)[C@H](O)[C@@H](NC(=O)OC(C)(C)C)c4ccsc4)C(C)=C1C3(C)C)[C@]1(OC(C)=O)CO[C@@H]1C[C@@H]2O (stereo partly drawn) [Compound 2408] | > 9.00
CCCC(=O)O[C@H]1C(=O)[C@@]2(C)C([C@H](OC(=O)c3ccccc3)[C@]3(O)C[C@H](OC(=O)[C@H](O)[C@@H](NC(=O)OCC)c4ccco4)C(C)=C1C3(C)C)[C@]1(OC(C)=O)CO[C@@H]1C[C@@H]2O (stereo partly drawn) [Compound 3693] | > 9.00
CC(=O)O[C@@]12CO[C@@H]1C[C@H](O)[C@@]1(C)C(=O)[C@H](OC(=O)C(C)C)C3=C(C)[C@@H](OC(=O)[C@H](O)[C@@H](NC(=O)OC(C)(C)C)c4ccco4)C[C@@](O)([C@@H](OC(=O)c4ccccc4)C12)C3(C)C (stereo partly drawn) [Compound 2269] | > 9.00
C/C=C/C(=O)O[C@H]1C(=O)[C@@]2(C)C([C@H](OC(=O)c3ccccc3)[C@]3(O)C[C@H](OC(=O)[C@H](O)[C@@H](NC(=O)OC(C)(C)C)c4ccccn4)C(C)=C1C3(C)C)[C@]1(OC(C)=O)CO[C@@H]1C[C@@H]2O (stereo partly drawn) [Compound 2348] | > 9.00
CCCC(=O)O[C@H]1C(=O)[C@@]2(C)C([C@H](OC(=O)c3ccccc3)[C@]3(O)C[C@H](OC(=O)[C@H](O)[C@@H](NC(=O)c4cccnc4)c4cccs4)C(C)=C1C3(C)C)[C@]1(OC(C)=O)CO[C@@H]1C[C@@H]2O (stereo partly drawn) [Compound 4190] | > 8.00
CC(=O)OC12COC1CC(O)C1(C)C(=O)C(OC(=O)c3cccs3)C3=C(C)C(OC(=O)C(O)C(NC(=O)OC(C)(C)C)c4ccoc4)CC(O)(C(OC(=O)c4ccccc4)C21)C3(C)C (stereo not drawn) [Compound 1923] | > 9.00

Compound | pIC50
CC(=O)O[C@@]12CO[C@@H]1C[C@H](O)[C@@]1(C)C(=O)[C@H](OC(=O)C3CC3)C3=C(C)[C@@H](OC(=O)[C@H](O)[C@@H](NC(=O)OC(C)(C)C)c4cccs4)C[C@@](O)([C@@H](OC(=O)c4ccccc4)C12)C3(C)C (stereo partly drawn) [Compound 0854] | > 9.00
CCCC(=O)O[C@H]1C(=O)[C@@]2(C)C([C@H](OC(=O)c3ccccc3)[C@]3(O)C[C@H](OC(=O)[C@H](O)[C@@H](NC(=O)c4cccs4)c4ccco4)C(C)=C1C3(C)C)[C@]1(OC(C)=O)CO[C@@H]1C[C@@H]2O (stereo partly drawn) [Compound 3656] | > 9.00
CCCC(=O)O[C@H]1C(=O)[C@@]2(C)C([C@H](OC(=O)c3ccccc3)[C@]3(O)C[C@H](OC(=O)[C@H](O)[C@@H](NC(=O)OC(C)C)c4cccs4)C(C)=C1C3(C)C)[C@]1(OC(C)=O)CO[C@@H]1C[C@@H]2O (stereo partly drawn) [Compound 3909] | > 9.00
CC(=O)O[C@@]12CO[C@@H]1C[C@H](O)[C@@]1(C)C(=O)[C@H](OC(=O)C3CC3)C3=C(C)[C@@H](OC(=O)[C@H](O)[C@@H](NC(=O)c4ccccc4)c4ccoc4)C[C@@](O)([C@@H](OC(=O)c4ccccc4)C12)C3(C)C (stereo partly drawn) [Compound 2826] | > 9.00
CCC(=O)O[C@H]1C(=O)[C@@]2(C)C([C@H](OC(=O)c3ccccc3)[C@]3(O)C[C@H](OC(=O)[C@H](O)[C@@H](NC(=O)OC(C)(C)C)c4ccsc4)C(C)=C1C3(C)C)[C@]1(OC(C)=O)CO[C@@H]1C[C@@H]2O (stereo partly drawn) [Compound 0562] | > 9.00
CCC(=O)O[C@H]1C(=O)[C@@]2(C)C([C@H](OC(=O)c3ccccc3)[C@]3(O)C[C@H](OC(=O)[C@H](O)[C@@H](NC(=O)OC(C)(C)C)c4cccs4)C(C)=C1C3(C)C)[C@]1(OC(C)=O)CO[C@@H]1C[C@@H]2O (stereo partly drawn) [Compound 0550] | > 8.00
CCC(=O)O[C@H]1C(=O)[C@@]2(C)C([C@H](OC(=O)c3ccccc3)[C@]3(O)C[C@H](OC(=O)[C@H](O)[C@@H](NC(=O)c4ccccc4)c4ccco4)C(C)=C1C3(C)C)[C@]1(OC(C)=O)CO[C@@H]1C[C@@H]2O (stereo partly drawn) [Compound 0663] | > 9.00
CCCC(=O)O[C@H]1C(=O)[C@@]2(C)C([C@H](OC(=O)c3ccccc3)[C@]3(O)C[C@H](OC(=O)[C@H](O)[C@@H](NC(=O)OC(C)(C)C)c4ccsc4)C(C)=C1C3(C)C)[C@]1(OC(C)=O)CO[C@@H]1C[C@@H]2O (stereo partly drawn) [Compound 1011] | > 9.00
CC(=O)O[C@@]12CO[C@@H]1C[C@H](O)[C@@]1(C)C(=O)[C@H](OC(=O)C=C(C)C)C3=C(C)[C@@H](OC(=O)[C@H](O)[C@@H](NC(=O)OC(C)(C)C)c4ccccc4)C[C@@](O)([C@@H](OC(=O)c4ccccc4)C12)C3(C)C (stereo partly drawn) [Compound 2520] | > 8.00
CCCC(=O)O[C@H]1C(=O)[C@@]2(C)C([C@H](OC(=O)c3ccccc3)[C@]3(O)C[C@H](OC(=O)[C@H](O)[C@@H](NC(=O)c4cccs4)c4cccs4)C(C)=C1C3(C)C)[C@]1(OC(C)=O)CO[C@@H]1C[C@@H]2O (stereo partly drawn) [Compound 3408] | > 9.00
C/C=C/C(=O)O[C@H]1C(=O)[C@@]2(C)C([C@H](OC(=O)c3ccccc3)[C@]3(O)C[C@H](OC(=O)[C@H](O)[C@@H](NC(=O)OC(C)(C)C)c4ccoc4)C(C)=C1C3(C)C)[C@]1(OC(C)=O)CO[C@@H]1C[C@@H]2O (stereo partly drawn) [Compound 2380] | > 9.00
CCOC(=O)N[C@@H](c1ccco1)[C@@H](O)C(=O)O[C@H]1C[C@@]2(O)[C@@H](OC(=O)c3ccccc3)C3[C@](C)(C(=O)[C@H](OC(=O)CC)C(=C1C)C2(C)C)[C@@H](O)C[C@H]1OC[C@@]31OC(C)=O (stereo partly drawn) [Compound 3535] | > 9.00
CC(=O)OC12COC1CC(O)C1(C)C(=O)C(OC(=O)c3cccs3)C3=C(C)C(OC(=O)C(O)C(NC(=O)OC(C)(C)C)c4cccs4)CC(O)(C(OC(=O)c4ccccc4)C21)C3(C)C (stereo not drawn) [Compound 1900] | > 9.00
CC(=O)OC12COC1CC(O)C1(C)C(=O)C(OC(=O)c3cccs3)C3=C(C)C(OC(=O)C(O)C(NC(=O)OC(C)(C)C)c4ccccc4)CC(O)(C(OC(=O)c4ccccc4)C21)C3(C)C (stereo not drawn) [Compound 1988] | > 8.00
CC(=O)O[C@@]12CO[C@@H]1C[C@H](O)[C@@]1(C)C(=O)[C@H](OC(=O)C3CC3)C3=C(C)[C@@H](OC(=O)[C@H](O)[C@@H](NC(=O)c4cccnc4)c4cccs4)C[C@@](O)([C@@H](OC(=O)c4ccccc4)C12)C3(C)C (stereo partly drawn) [Compound 4112] | > 8.00
CCC(=O)O[C@H]1C(=O)[C@@]2(C)C([C@H](OC(=O)c3ccccc3)[C@]3(O)C[C@H](OC(=O)[C@H](O)[C@@H](NC(=O)OC(C)C)c4ccco4)C(C)=C1C3(C)C)[C@]1(OC(C)=O)CO[C@@H]1C[C@@H]2O (stereo partly drawn) [Compound 3522] | > 9.00
CC(=O)OC12COC1CC(O)C1(C)C(=O)C(OC(=O)c3cccs3)C3=C(C)C(OC(=O)C(O)C(NC(=O)OC(C)(C)C)C(C)C)CC(O)(C(OC(=O)c4ccccc4)C21)C3(C)C (stereo not drawn) [Compound 1964] | > 8.00
CC(=O)O[C@@]12CO[C@@H]1C[C@H](O)[C@@]1(C)C(=O)[C@H](OC(=O)C=C(C)C)C3=C(C)[C@@H](OC(=O)[C@H](O)[C@@H](NC(=O)OC(C)(C)C)c4ccsc4)C[C@@](O)([C@@H](OC(=O)c4ccccc4)C12)C3(C)C (stereo partly drawn) [Compound 2511] | > 9.00
